Data as given in patent US10047151B2, “Methods for the treatment of cancer and inflammatory diseases using cereblon as a predictor” (Celgene Corporation, priority 2011, dated 2018).

Key:
IRF4 [1] = assay: IRF4 protein expression in ABC-DLBCL cells (Western blot); type: cell-based
Description: (§1) Cells were treated with test compounds or 0.1% DMSO for indicated times. Following incubation, cells were collected, pelleted with centrifugation, and immediately lysed in 0.1 ml lysis buffer containing 10 mM Tris-HCl pH 8.0, 10 mM EDTA, 150 mM NaCl, 1% NP-40, 0.5% SDS, 1 mM DTT, 1 mM Na3VO4, plus Complete protease inhibitor cocktail (Roche Applied Science, Indianapolis, Ind.), then processed with a Qiashredder™ (Qiagen, Valencia, Calif.) for 1 minute and frozen on dry ice. Samples were diluted with 6×SDS sample buffer and then boiled for 5 min. Approximately 30 μl of this mixture was loaded per lane on a Criterion Precast 4-12% Tris-HCl gel (Bio-Rad, Hercules, Calif.), electrophoresed, and transferred to nitrocellulose membranes (Bio-Rad, Hercules, Calif.). The membranes were blocked for 1 hour at room temperature using blocking buffer (LI-COR Biosciences, Lincoln, Nebr.), then incubated overnight at 4° C. with antibodies against either BCL-10, IRF4, CRBN or β-actin. Membranes were washed and incubated with IRDye Secondary Antibodies (1:30,000) for 1 hour at room temperature. A standard protocol was then followed for signal detection, using the Odyssey® Infrared Imaging System and software (LI-COR Biosciences, Lincoln, Nebr.).
To understand the molecular mechanism of lenalidomide on ABC-DLBCL cells, the effects of lenalidomide on IRF4 expression in these cells were investigated. […] Lenalidomide-induced decrease of IRF4 expression occurred as early as 1 day of drug treatment, with similar kinetics to that of the inhibitors (zVRPR-fmk and LY-333,531, respectively) of MALT1 and PKCβ, two key enzymes involved in NF-κB activation upon BCR engagement in B cells.

IRF4 [2] = assay: IRF4 protein level in H929 cells (Western blot); type: cell-based
From the text: In H929 cells, the cell cycle arrest in G1 phase by the drugs coincides with a reduction of tumor suppressor, pRb, phosphorylation and the oncogene and myeloma survival factor IRF4.

OCI-Ly10 DLBCL cells = assay: OCI-Ly10 human tumor xenograft model; type: in vivo
Description: . A total of 10×10^6 OCI-Ly10 DLBCL cells in 100% Matrigel (Becton Dickinson, San Jose, Calif.) were injected subcutaneously into the right flank of mice. Mice were monitored 2 or 3 times a week for the appearance of tumors. Once the tumors reached an average size of 100-150 mg, 10 mice in each group were treated with either vehicle (0.5% carboxymethyl cellulose: 0.25% Tween 80 in deionized H2O) or indicated doses of lenalidomide (qd×28, p.o.) or the positive control vincristine (q4d×4, i.v.). Mice were monitored daily for health status as well as tumor growth. Tumors of all mice were measured with a digital caliper and volumes calculated with the following formula: tumor volume (mm^3)=length (mm)×width (mm)^2. Mice were killed when tumor size exceeded 1000 mm^3.
To confirm the relevance of lenalidomide-mediated inhibition of NF-κB/IRF4 signaling in vivo in ABC-DLBCL, a subcutaneous OCI-Ly10 xenograft model was established. […] Compared with vehicle control group, lenalidomide treatment for 7 days reduced IRF4 expression and BCL-10 cleavage by 15-35% (p<0.05).

[3] = test system: CARD11-BCL-10-MALT1 (CBM) complex; assay: MALT1-induced BCL-10 cleavage (CBM complex activity) in ABC-DLBCL cells; type: cell-based
Description: as §1
This mutation has been reported to cause constitutive formation and activation of CARD11-BCL-10-MALT1 (CBM) complex of BCR signaling pathway, leading to NF-κB overactivation in lymphoma cells. See Lenz, G., et al., Science 2008, 319: 1676-9; Thome, M. et al., Cold Spring Harb Perspect Biol. 2010; 2: a003004. To investigate the potential involvement of CBM complex in lenalidomide-induced IRF4 inhibition in these cells, the effect of lenalidomide on the complex activity was examined by measuring MALT1 paracaspase enzymatic activity. MALT1 is activated upon association with BCL-10 and CARD11 to form active CBM complex and then cleaves its binding partners, such as BCL-10.

U266 = assay: Ubiscan ubiquitinated peptide quantification in U266; type: cell-based
From the text: The effects of lenalidomide and pomalidomide on protein ubiquination were investigated using CST Ubiscan technology. Treated samples were sent to Cell Signaling Technology for ubiquinated peptide enrichment and quantification by LC/MS/MS. […] In the MG132 combo, more ubiquinated peptides are observed (compared with their controls). […] These peptides correspond to 176 unique proteins. Top few groups are: nucleosome, chromatin, protein-DNA complex assembly, Histone H2A. Among the 176 proteins, we found five proteins that belong to “ubiquitin-protein ligase activity” category, they are MDM2, HERC2, UBE2D3 (only by pomalidomide), UBE2N (lenalidomide only), UBE2M (both). Results for hits categorized by conditions are shown in FIGS. 8 & 9 (without MG132) and FIGS. 10 & 11 (with MG132).

Structure (SMILES): Nc1cccc2c1CN(C1CCC(=O)NC1=O)C2=O (stereo not shown) [lenalidomide, 3-(4-amino-1-oxo-1,3-dihydro-isoindol-2-yl)-piperidine-2,6-dione]
- IRF4 levels (IRF4 [1]; OCI-Ly3 cells, 1-3 day treatments): neither lenalidomide nor the PKCβ inhibitor had any appreciable effect
- IRF4 protein levels (IRF4 [1]; sensitive cell lines U2932 and OCI-Ly10, treatment for 1-3 days): significantly downregulate
- total level of protein IRF4 (IRF4 [2]): decreased
- tumor size (OCI-Ly10 DLBCL cells; 3-30 mg/kg po, qdX28, p<0.01): significantly decreased tumor size
- toxicity based upon mouse weight (OCI-Ly10 DLBCL cells; throughout study): No pronounced toxicity
- reduction of IRF4 expression and BCL-10 cleavage compared with vehicle control group (OCI-Ly10 DLBCL cells; treatment for 7 days, p<0.05): 15-35%
- BCL-10 cleavage ([3]; OCI-Ly3 cells): neither the PKCβ inhibitor nor lenalidomide had any effect
- MALT1-induced BCL-10 cleavage ([3]; sensitive ABC-DLBCL cell lines OCI-Ly10 and U2932): inhibited MALT1-induced BCL-10 cleavage in a concentration-dependent manner
- Ub-proteins increased in abundance (U266): IKZF3, RPL19, PCM1 and NEDD8
- proteins decreased in abundance (U266): GNB2L1 and HNRNPR
